Reference: patent publication US10556926B2, “Synthetic artificial peptides with antimicrobial effect” (priority 2014, dated 2020)
Where two headings read alike, the source gives them in different places. No end group written: not given here.

What was measured:
[1] = tested on: E. coli ML-35p; experiment: Kinetics of permeabilization of the outer bacteria membrane (nitrocefin); format: cell-based, Escherichia coli
Description: (§1) The ability of the antimicrobial peptides for the respective permeabilization of the outer and inner bacteria membrane was tested by way of example on E. coli ML-35p (made available by Dr. R. E. Lehrer, Center for Health Sciences, Los Angeles, Calif., USA). The peptides were incubated in serial dilution with E. coli ML-35p and the time-dependent release of cell-internal components was measured in a slightly modified protocol according to Ericsson et al. (2002). For this purpose, the bacteria were cultured in Luria-Bertani (LB) medium with 100 μg/ml ampicillin (Fluka, Taufkirchen, Germany) until reaching an optical density of 0.4 at 600 nm wavelength. Then, the cells were washed three times by centrifugation at 4000 g for 1 min and subsequent up-take in 10 mM HEPES buffer pH 7.2. Finally, the cells were diluted to an optical density of 0.3 at 600 nm wavelength. To measure the permeabilization of the outer membrane, nitrocefin (Merck, Darmstadt, Germany) was diluted in HEPES buffer to a concentration of 60 μg/ml. The antimicrobial peptides were diluted in HEPES buffer to an end concentration of 12 μM, 24 μM, 48 μM and 96 μM end concentration. In the next step, 50 μl of nitrocefin were admixed with 50 μl of antimicrobial peptide and 50 μl of bacteria suspension such that an end concentration of 20 μg/ml of nitrocefin, 4 μM to 32 μM of antimicrobial peptide and bacteria with an optical density of 0.1 to 600 nm were present. The samples were mixed and the absorption at 500 nm wavelength was measured directly over a period of at least 90 min at 37° C. with regular shaking in a FLUOstar omega Microplate Reader (BMG Labtech, Ortenberg, Germany). The investigation of the permeabilization of the inner membrane was carried out in the same way except that instead of the nitrocefin accordingly 0-nitrophenyl-beta-D-galactoside (ONPG, Sigma-Aldrich) in an end concentration of 100 μg/ml was used and the absorption change was determined at a wavelength of 420 nm. The control used was samples without antimicrobial peptide, the positive control used for the membrane permeabilization was polymyxin B (Sigma-Aldrich) in an end concentration of 5 μM. For the data evaluation, firstly the measurement values of the corresponding negative controls were deducted from the measurement values of the samples, and the difference was then divided by the corresponding measurement values of the permeabilization control. Then, a graphical evaluation was carried out, the calculated values being plotted against the peptide concentration and being fitted with the help of the Origin Pro 8.1 G Software (OriginLab) according to a sigmoidal model.
(§2) As comparison parameter between the peptides, the times were ascertained from this at which 50% of the final signal level was reached. For this purpose, the equation with the percentage membrane permeabilization y, the time x in minutes, the lower plateau A1, the upper plateau A2, the point of inflection Log X0 and the Hill incline p
(§3) [formula] was used. The calculation of the parameters A1, A2, Log X0 and p was performed by the program by reference to the compensating curve. Further resolution of equation 5.1 for the case y=50 then produced for x the desired time at which the half-maximum signal level was reached.

[2] = tested on: E. coli ML-35p; experiment: Kinetics of permeabilization of the inner bacteria membrane (ONPG); format: cell-based, Escherichia coli
Description: as §1, with “model. As representative examples, FIGS. 4 and 5 show the graphical evaluation for the kinetic investigation of the permeabilization of the outer E. coli bacteria membrane for the peptides N4 (FIG. 4) and O1 (FIG. 5).” for “model.”
as §2, §3

[3] = tested on: human histiocytic lymphoma cell line U937; experiment: Long-term growth inhibition, minimum toxic concentration (MTC)
Description: The cytotoxic potential of the antimicrobial peptides was determined by way of example by reference to the human histiocytic lymphoma cell line U937 (DSMZ). The influence of the peptides on the permeability of the cell membrane and their longer-term growth-inhibiting effect was investigated. 15 ml of RPMI 1640 medium with 2 mM glutamine and 10% FCS (Biochrom, Berlin, Germany) were inoculated with 1·10^5 cells per ml and cultivated for three days at 37° in T75 cell culture bottles (TPP, Trasadingen, Switzerland) with constant gassing with 5% CO2 in a climatically controlled chamber. The medium was admixed with 10 U/ml penicillin and […] streptomycin (both AppliChem, Darmstadt, Germany) to avoid bacterial contaminations, with no further antibiotics being added during the subsequent recultivation. Before each experiment, the cells were washed by centrifugation at 100 g for five minutes and subsequent resuspension in RPMI 1640 medium with 2 mM glutamine and 10% FCS in each case two times and adjusted to a concentration of 1·10^5 cells per ml. Finally, in each case 100 μl of the U937 cells were transferred to the reaction chambers of a sterile 96-well polypropylene microtiter plate and admixed with in each case 100 μl of a prediluted antimicrobial peptide in RPMI 1640 medium without antibiotic addition, such that end concentrations of in each case 5·10^4 cells per ml at peptide concentrations between 0.25 μM and 64 μM were present. The negative control used was samples without antimicrobial peptide, while Triton X-100 (AppliChem) was used in an end concentration of 5% as positive control for the permeabilization. The samples were cultivated for two hours at 37° C. and with continuous gassing with 5% CO2 in a climatically controlled chamber. Then, in each case 100 μl of each sample were removed and transferred to new sterile microtiter plates for determining the direct membrane damage. The remaining 100 μl of the samples were cultivated for at least four further days.
For this purpose, 10 μl of lysing solution were added to in each case 100 μl of cell suspension and incubated for 60 minutes at 37° C. Then, the cell culture supernatants were investigated as described above. The lowest peptide concentration at which complete suppression of the cell growth was established after four days was stipulated as the minimum toxic concentration (MTC).

[4] = tested on: human histiocytic lymphoma cell line U937; experiment: Cytotoxicity, direct membrane damage (CytoTox 96), LD50; format: cell-based; conditions: U937, two hours at 37° C., 0.25-64 μM
Description: The direct membrane damage was investigated with the help of the CytoTox 96 Non-Radioactive Cytotoxicity Assay (Promega, Mannheim, Germany). For this purpose, the cells were sedimented at 100 g for ten minutes at 4° C., and 50 μl of the resulting culture supernatant were added to 50 μl of the CytoTox substrate mix. After an incubation time of 30 minutes in the dark at room temperature, 50 μl of the CytoTox stopping solution were added to the sample and the absorption was measured at 490 nm. To determine the LD50 value, the measurement value of the negative control was deducted from the absorption values and divided by the measurement value of the permeabilization control. The calculated values were plotted graphically against the peptide concentration and fitted using the Origin pro 8.1 G Software according to a sigmoidal model and the LD50 values were ascertained from this. The calculation was carried out analogously to example 5 by reference to the solution of equation 5.1 for the case y=50, where y in this case corresponds to the relative cytotoxicity in percent and x corresponds to the peptide concentration in μM. Representative graphical evaluations of LD50 values are shown in FIG. 6 by reference to the measurement results for the reference peptides BMAP-27, protamine and KL-helix, and also the peptide O1 according to the invention.

[5] = tested on: Staphylococcus xylosus; conditions: 18 h
Description: (§4) The minimum inhibitory concentration (MIC) of the peptides was carried out by way of example against gram(−) E. coli DH5α (and gram(+) Staphylococcus xylosus (both Deutsche Sammlung von Mikroorganismen and Zellkulturen, DSMZ) in a standardized microdilution method according to the general guidelines of the CLSI (Clinical and Laboratory Standards Institute 2006) and EUCAST (European Committee for Antimicrobial Susceptibility Testing of the European Society of Clinical Microbiology and Infectious Diseases 2003) with slight adaptations to the investigation of cationic antimicrobial peptides (Wiegand et al. 2008). The bacteria cells were cultivated in Mueller-Hinton-Boullion (MHB) to an optical density of 0.4 to 0.6 at 600 nm wavelength, corresponding to about 4·10^8 bacteria per ml. Then, the bacteria cultures were diluted to a bacteria concentration of about 1·10^5 bacteria per ml in sterile MHB. Using the peptides, series of 2-fold dilutions starting at 128 μM to the smallest dilution of 0.5 μM in MHB were prepared. The peptide dilutions were mixed with the dilute bacteria cultures in a […] in the chambers of a 96-well polypropylene microtiter plate (Starlab, Hamburg, Germany), so that the peptides were present in an end concentration between 64 μM and 0.25 μM at a bacteria concentration of 5·10^4 bacteria/ml. Sterile MHB served as negative control, and the positive control used as the corresponding bacteria concentration in MHB without the addition of peptide. The microtiter plates were incubated for 18 hours at 37° C. with shaking at 120 rpm in a climatically controlled chamber. After the incubation, the bacteria concentration was determined by renewed absorption measurement at a wavelength of 600 nm.

[6] = tested on: E. coli DH5α; conditions: DH5α, 18 h
Description: as §4

Substance | Toxicity LD50 [4] | MIC S. xylosus [5] | MIC E. coli [6] | Toxicity MTC (minimum toxic concentration) [3] | further results
GRFKRFRKKFKKLFKKLSPVIPLLHLG-OH [BMAP-27] | – | – | – | – | Outer membrane, time to 50% of final signal ([1]; 4 μM peptide): <1 min; Outer membrane, time to 50% of final signal ([1]; 8 μM peptide): <1 min; Outer membrane, time to 50% of final signal ([1]; 16 μM peptide): <1 min; Outer membrane, time to 50% of final signal ([1]; 32 μM peptide): <1 min; Inner membrane, time to 50% of final signal ([2]; 4 μM peptide): 16 min; Inner membrane, time to 50% of final signal ([2]; 8 μM peptide): 9 min; Inner membrane, time to 50% of final signal ([2]; 16 μM peptide): 7 min; Inner membrane, time to 50% of final signal ([2]; 32 μM peptide): 5 min; Toxicity MTC (minimum toxic concentration) ([3]; U937, complete suppression of cell growth after four days): 4.0 µM
KRKLILKRILIKRK [A2] | >64 µM | 8 µM | 16 µM | >64 µM | –
KRKSGSGSKRK [M6] | >64 µM | >64 µM | >64 µM | >64 µM | –
LIKRK [N8, LIKRK] | >64 µM | >64 µM | >64 µM | >64 µM | –
LILIKRK [N6, LILIKRK] | >64 µM | >64 µM | >64 µM | >64 µM | –
LILKRKRKRKRILI [A5] | >64 µM | >64 µM | >64 µM | >64 µM | –
RKILILIKRK [N3] | >64 µM | 4 µM | 16 µM | >64 µM | –
RKLILKRKRILIKR [A3] | >64 µM | 8 µM | 16 µM | >64 µM | –
RKRKILILIKRK [N2] | >64 µM | 2 µM | 8 µM | >64 µM | –
RKRKLILILIKRKR [A1] | >64 µM | 0.5 µM | 8 µM | >64 µM | –
RRRVVVVVRRR [S5] | >64 µM | 2 µM | 32 µM | >64 µM | –
